Reference: patent publication US20220370424A1 (Deciphera Pharmaceuticals, LLC, priority 2017, published 2022)
pIC50: −log10 of the molar value. Values belong to the molecule of their own block, whether it stands above or below them.

What was measured:
[1] = Phase 1 study: plasma pharmacokinetics, Cycle 1 Day 15, after oral Compound A; format: in vivo, human; settings: patients, Cycle 1 Day 15 steady state; for Cmax: human, po, 150 mg, Compound A Cmax (mean)
Source text: Phoenix WinNonlin version 6.3 was used to analyze plasma concentration versus time data for calculation of standard noncompartmental PK parameters. All PK calculations were completed using the nominal sample collection times.

[2] = tested on: PDGFRα D842V mutated Gastrointestinal Stromal Tumors (GIST); assay: Phase 1 study DCC-2618-01-001: antitumor activity (RECIST 1.1) in GIST patients with PDGFRα D842V mutation; format: in vivo, human; settings: GIST patient
Protocol: (§1) Preliminary antitumor activity was measured by CT scans according to RECIST 1.1 every other cycle (every 56 days). Pharmacodynamics effects were measured as a reduction in mutation allele frequency (MAF) in plasma cell-free (cf) DNA and analyzed with Guardant 360 v2.9 or v2.10 (Guardant Health, Redwood City, Calif.), a. 73-gene next generation sequencing panel.
All patients had to have progressive disease on standard of care treatment and would rapidly progress without treatment. Three patients with PDGFRα-mutated Gastrointestinal Stromal Tumors (GIST) were enrolled in the study. The PDGFRα D842V mutation was identified in each patient by tumor biopsy. Based on non-clinical data and the available pharmacokinetic data from study DCC-2618-01-001, dose levels of >50 mg BID (daily dose equivalent 100 mg) were sufficient to lead to tumor control i.e. growth arrest in these advanced sarcomas of PDGFRα D842V mutation-dependent tumors in patients suffering from GIST. Out of 3 evaluable patients, 2 were enrolled at or above target-effective dose levels (150 mg QD and 100 mg BID). […] The patient at 100 mg BID is now in Cycle 11 (>40 weeks) and continues to benefit from treatment. […] The 2 patients had 1 and 3 prior treatments with Tyrosine Kinase Inhibitors, respectively.

[3] = tested on: PDGFRα D842V mutation in plasma cell-free DNA; assay: Phase 1 study: PDGFRα D842V mutation allele frequency in plasma cfDNA (Guardant 360); format: in vivo, human; settings: GIST patient at 100 mg BID
Protocol: as §1
To date, cfDNA follow up data for PDGFRα D842V mutation allele frequency in plasma are available for the patient at 100 mg BID only. The PDGFRα D842V mutation was not detected by cfDNA at baseline, but at Cycle 3 Day 1 (8 weeks) post-treatment a frequency of 0.59% was detected.

[4] = tested on: circulating glioblastoma tumor cells (PDGFRα+/GFAP+); assay: Phase 1 study: circulating glioblastoma tumor cells (PDGFRα+/GFAP+ CTC) in whole blood; format: in vivo, human; settings: GBM patient, 20 mg BID
Protocol: (§2) Preliminary antitumor activity was measured by CT scans according to RANO (Revised Assessment in Neuro-Oncology) criteria every other cycle followed by after every cycle (every 56 or 84 days). Pharmacodynamic effects […] were measured as a reduction in circulating tumor cells (CTC). Whole blood was enriched for CTCs in an OncoQuick tube. The CTC layer was incubated with an adenovirus that replicates and expresses GFP in cells with high levels of telomerase (Oncolys BioPharma Inc.). Cells were then incubated with fluorescently-labeled antibodies, fixed, and stained with DAPI. Cells positive for DAPI, GFP, PDGFRα and GFAP fluorescence were counted as circulating glioblastoma tumor cells using a BioTek Cytation 5 imager. Glial fibrillary acidic protein (GFAP) is unambiguously attributed to glial cells.
The relevance of PDGFRα amplification has been assessed in pediatric and adult high-grade astrocytomas (HGA) including glioblastomas. […] Dunn et al., provide additional evidence that PDGFRα amplification is a driver genomic alteration for GBM (Dunn et al., Genes Dev. (2012) 26(8):756-84). […] The frequency dropped in cycles 13 (52 weeks) and 17 (68 weeks) to 1.11 and 0.58 CTCs/mL, respectively.

[5] = tested on: PDGFRα amplified glioblastoma; assay: Phase 1 study: antitumor activity (RANO) in glioblastoma patient with PDGFRα amplification; format: in vivo, human; settings: GBM patient, 20 mg BID oral
Protocol: as §2
All patients had to have progressive disease on standard of care treatment and would rapidly progress without treatment. One patient with PDGFRα amplified glioblastoma (GBM; 6× amplified, 12 copies) was enrolled in the study at the 20 mg BID dose level. The patient had been treated initially with combined radio-chemotherapy followed by temozolomide alone and progressed after 3 months. The GBM patient is now in cycle 19 (>17 months on study) and continues to benefit from treatment. […] FIG. 1B provided an additional proof of the tumor reduction after cycle 9.

[6] = tested on: FIP1L1-PDGFRα fusion in EOL-1 cells; assay: EOL-1 Western blot, phospho-PDGFRα (Tyr754); format: cell-based; settings: Homo sapiens, EOL1, 4 hours, read-out: IC50, inhibition of phosphorylation of FIP1L1-PDGFRα fusion in EOL-1 cells
Protocol: (§3) Cells were washed with PBS, then lysed. Cell lysates were separated by SDS-PAGE and transferred to PVDF. Phospho-PDGFRα (Tyr754) was detected using an antibody from Cell Signaling Technology (Beverly, Mass.), ECL Plus detection reagent (GE Healthcare, Piscataway, N.J.) and a Molecular Devices Storm 840 phosphorimager in fluorescence mode. Blots were stripped and probed for total PDGFRα using an antibody from Cell Signaling Technology (Beverly, Mass.). IC50 values were calculated using Prism software (GraphPad, San Diego, Calif.).

[7] = tested on: FIP1L1-PDGFRα fusion in EOL-1 cells; assay: EOL-1 cell proliferation assay (resazurin); format: cell-based; settings: Homo sapiens, EOL1; 67 h + 5 h resazurin; read-out: IC50, inhibition of proliferation of FIP1L1-PDGFRα fusion in EOL-1 cells
Protocol: (§4) A serial dilution of test compound was dispensed into a 96-well black clear bottom plate (Corning, Corning, N.Y.). Ten thousand cells were added per well in 200 μL complete growth medium. […] Plates were read on a Synergy2 reader (Biotek, Winooski, Vt.) using an excitation of 540 nm and an emission of 600 nm. Data was analyzed using Prism software (GraphPad, San Diego, Calif.) to calculate IC50 values.

[8] = target: T1, recombinant wild type PDGFRβ (Homo sapiens, UniProt P09619); assay: Biochemical assay for PDGFRB (coupled pyruvate kinase/lactate dehydrogenase); settings: 0.5 mM ATP, 9 nM PDGFRB; read-out: IC50, inhibition of recombinant wild type PDGFRβ enzyme activity
T1 construct: purchased DeCode Biostructures, Bainbridge Island, Wash
Protocol: (§5) The reaction rate was calculated using the 2-3 h time frame.

[9] = target: T2, recombinant wild type PDGFRα (Homo sapiens, UniProt P16234); assay: Biochemical assay for PDGFRα (coupled pyruvate kinase/lactate dehydrogenase); settings: 0.5 mM ATP, 4.8 nM PDGFRA; read-out: IC50, inhibition of recombinant wild type PDGFRα enzyme activity
T2 construct: purchased DeCode Biostructures, Bainbridge Island, Wash
Protocol: Inhibition of PDGFRA was measured after adding serial diluted test compound (final assay concentration of 1% DMSO). A decrease in absorption at 340 nm was monitored continuously for 6 hours at 30° C. on a multi-mode microplate reader (BioTek, Winooski, Vt.). The reaction rate was calculated using the 1-2 h time frame. The reaction rate at each concentration of compound was converted to percent inhibition using controls (i.e. reaction with no test compound and reaction with a known inhibitor) and IC50 values were calculated by fitting a four-parameter sigmoidal curve to the data using Prism (GraphPad, San Diego, Calif.).

[10] = target: T3, D842V mutant PDGFRα expressed in BaF3 cells (Homo sapiens, UniProt P16234, D842V); assay: BaF3 PDGFRα D842V Western blot, phospho-PDGFRα (Tyr754); format: cell-based; settings: 4 hours, read-out: IC50, inhibition of phosphorylation of D842V mutant PDGFRα expressed in BaF3 cells
T3 construct: expressed in transfected cells; host or cells: BaF3 cells (IL-3 independent selection)
Source text: (§6) BaF3 cells were transfected with a construct encoding D842V PDGFRα and selected for IL-3 independence.
as §3

[11] = tested on: D842V mutant PDGFRα BaF3 cells; assay: BaF3 PDGFRα D842V cell proliferation assay (resazurin); format: cell-based; settings: Mus musculus, 67 h + 5 h resazurin, read-out: IC50, inhibition of proliferation of D842V mutant PDGFRα BaF3 cells
Protocol: as §6, §4

[12] = target: T4, recombinant D842V mutant PDGFRα (Homo sapiens, UniProt P16234, D842V); assay: Biochemical assay for PDGFRα D842V (coupled pyruvate kinase/lactate dehydrogenase); settings: 0.5 mM ATP, 3 nM PDGFRA D842V; read-out: IC50, inhibition of recombinant D842V mutant PDGFRα enzyme activity
T4 construct: His (N); purchased Invitrogen, Carlsbad, Calif
Protocol: as §5

T4 sequence (P16234 with tags, fused parts or gaps D842V): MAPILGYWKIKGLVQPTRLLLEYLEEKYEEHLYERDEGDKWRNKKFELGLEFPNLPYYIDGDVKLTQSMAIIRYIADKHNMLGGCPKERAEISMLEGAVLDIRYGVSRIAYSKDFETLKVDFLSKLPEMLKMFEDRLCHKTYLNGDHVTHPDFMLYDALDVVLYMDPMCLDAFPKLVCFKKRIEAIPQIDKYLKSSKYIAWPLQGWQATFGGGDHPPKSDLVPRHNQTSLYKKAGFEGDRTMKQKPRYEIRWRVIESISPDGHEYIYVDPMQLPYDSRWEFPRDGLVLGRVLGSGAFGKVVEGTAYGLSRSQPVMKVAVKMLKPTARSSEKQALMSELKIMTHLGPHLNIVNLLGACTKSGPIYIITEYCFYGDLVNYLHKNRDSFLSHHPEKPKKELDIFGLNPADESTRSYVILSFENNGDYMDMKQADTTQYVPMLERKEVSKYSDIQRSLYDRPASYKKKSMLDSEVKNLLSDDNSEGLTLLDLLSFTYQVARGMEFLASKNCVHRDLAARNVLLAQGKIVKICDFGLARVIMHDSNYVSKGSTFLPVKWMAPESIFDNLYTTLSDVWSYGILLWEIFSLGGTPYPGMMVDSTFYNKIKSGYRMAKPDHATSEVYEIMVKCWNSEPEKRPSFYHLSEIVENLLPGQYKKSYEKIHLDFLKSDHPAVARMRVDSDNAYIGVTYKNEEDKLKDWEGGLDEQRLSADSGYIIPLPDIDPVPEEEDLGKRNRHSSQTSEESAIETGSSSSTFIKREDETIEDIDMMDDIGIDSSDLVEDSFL
T2 sequence (P16234 with tags, fused parts or gaps): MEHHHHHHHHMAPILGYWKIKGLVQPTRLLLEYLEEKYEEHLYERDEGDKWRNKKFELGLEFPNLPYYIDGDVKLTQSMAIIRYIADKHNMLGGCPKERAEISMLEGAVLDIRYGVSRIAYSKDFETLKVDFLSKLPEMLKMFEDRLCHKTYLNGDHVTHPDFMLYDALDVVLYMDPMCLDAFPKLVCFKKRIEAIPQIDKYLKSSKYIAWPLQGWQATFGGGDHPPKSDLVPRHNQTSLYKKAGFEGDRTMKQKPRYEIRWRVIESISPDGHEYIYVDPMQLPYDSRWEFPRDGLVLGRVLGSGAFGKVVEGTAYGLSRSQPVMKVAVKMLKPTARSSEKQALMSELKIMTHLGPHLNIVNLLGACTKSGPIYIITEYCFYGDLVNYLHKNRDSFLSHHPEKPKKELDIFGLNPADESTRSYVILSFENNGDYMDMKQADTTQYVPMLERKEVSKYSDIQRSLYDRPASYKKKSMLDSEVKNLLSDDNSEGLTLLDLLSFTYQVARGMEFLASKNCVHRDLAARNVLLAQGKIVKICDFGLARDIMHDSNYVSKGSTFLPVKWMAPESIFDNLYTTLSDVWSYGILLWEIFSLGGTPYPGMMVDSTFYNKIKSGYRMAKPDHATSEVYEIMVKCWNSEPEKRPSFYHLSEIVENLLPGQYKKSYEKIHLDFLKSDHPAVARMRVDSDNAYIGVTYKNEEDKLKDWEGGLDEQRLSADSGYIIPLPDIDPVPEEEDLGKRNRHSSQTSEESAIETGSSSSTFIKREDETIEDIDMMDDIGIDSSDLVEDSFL
T3 sequence (P16234 24-1089 D842V): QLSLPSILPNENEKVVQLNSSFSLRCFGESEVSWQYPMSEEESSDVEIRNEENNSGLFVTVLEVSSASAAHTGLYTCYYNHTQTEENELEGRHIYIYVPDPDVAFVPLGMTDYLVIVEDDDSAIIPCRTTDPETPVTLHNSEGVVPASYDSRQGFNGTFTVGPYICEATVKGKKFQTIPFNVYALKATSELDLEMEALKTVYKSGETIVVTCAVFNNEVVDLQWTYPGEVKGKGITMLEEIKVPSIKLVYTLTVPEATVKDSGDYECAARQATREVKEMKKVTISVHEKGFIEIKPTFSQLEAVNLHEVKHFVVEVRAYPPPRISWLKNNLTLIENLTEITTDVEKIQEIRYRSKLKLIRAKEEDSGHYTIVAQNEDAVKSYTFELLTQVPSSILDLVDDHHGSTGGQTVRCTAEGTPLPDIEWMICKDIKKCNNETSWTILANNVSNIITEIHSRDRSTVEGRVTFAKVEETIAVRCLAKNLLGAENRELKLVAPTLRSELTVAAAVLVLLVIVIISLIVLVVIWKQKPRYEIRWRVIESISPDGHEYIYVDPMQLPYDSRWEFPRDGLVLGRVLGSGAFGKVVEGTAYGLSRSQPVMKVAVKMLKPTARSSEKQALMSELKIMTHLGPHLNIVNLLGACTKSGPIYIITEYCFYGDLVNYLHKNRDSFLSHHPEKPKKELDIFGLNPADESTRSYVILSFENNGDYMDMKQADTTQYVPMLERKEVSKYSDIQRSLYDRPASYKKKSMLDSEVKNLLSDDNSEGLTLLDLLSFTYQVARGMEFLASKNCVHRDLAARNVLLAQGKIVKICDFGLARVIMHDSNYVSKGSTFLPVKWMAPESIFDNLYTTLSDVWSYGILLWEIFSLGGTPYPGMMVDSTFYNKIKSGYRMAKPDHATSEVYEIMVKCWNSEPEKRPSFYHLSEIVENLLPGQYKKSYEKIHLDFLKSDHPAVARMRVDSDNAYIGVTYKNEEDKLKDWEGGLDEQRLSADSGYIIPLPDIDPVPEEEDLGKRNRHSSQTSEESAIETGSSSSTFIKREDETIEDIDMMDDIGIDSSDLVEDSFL
T1 sequence (P09619 with tags, fused parts or gaps N1019K): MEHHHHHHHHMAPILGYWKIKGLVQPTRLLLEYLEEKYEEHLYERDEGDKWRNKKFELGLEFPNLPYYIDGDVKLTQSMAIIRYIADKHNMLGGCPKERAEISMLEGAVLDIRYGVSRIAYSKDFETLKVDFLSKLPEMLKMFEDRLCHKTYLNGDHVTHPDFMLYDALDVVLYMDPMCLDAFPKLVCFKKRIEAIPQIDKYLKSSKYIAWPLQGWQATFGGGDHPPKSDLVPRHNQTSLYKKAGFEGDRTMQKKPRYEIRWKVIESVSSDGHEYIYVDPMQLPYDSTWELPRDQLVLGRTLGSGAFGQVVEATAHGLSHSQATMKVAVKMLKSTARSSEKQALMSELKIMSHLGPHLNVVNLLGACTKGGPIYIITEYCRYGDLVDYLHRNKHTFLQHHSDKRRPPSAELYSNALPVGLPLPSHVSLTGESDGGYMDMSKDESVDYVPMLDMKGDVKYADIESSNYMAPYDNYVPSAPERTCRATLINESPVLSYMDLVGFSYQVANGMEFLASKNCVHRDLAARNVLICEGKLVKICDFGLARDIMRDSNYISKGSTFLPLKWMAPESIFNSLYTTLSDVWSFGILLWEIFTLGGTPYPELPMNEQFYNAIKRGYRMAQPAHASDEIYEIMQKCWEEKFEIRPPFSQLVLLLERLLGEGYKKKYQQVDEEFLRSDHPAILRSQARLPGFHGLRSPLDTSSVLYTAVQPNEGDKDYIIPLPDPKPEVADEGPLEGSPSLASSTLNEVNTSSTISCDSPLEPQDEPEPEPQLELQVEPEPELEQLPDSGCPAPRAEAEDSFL

SMILES: CCn1c(=O)c(-c2cc(NC(=O)Nc3ccccc3)c(F)cc2Br)cc2cnc(NC)cc21 [Compound A, 1-[4-bromo-5-[1-ethyl-7-(methylamino)-2-oxo-1,2-dihydro-1,6-naphthyridin-3-yl]-2-fluorophenyl]-3-phenylurea]
Cmax ([1]; oral Compound A 150 mg BID): 1500 ng/mL | Cmax ([1]; oral Compound A 150 mg QD): 861 ng/mL | Compound A AUC12h (mean) ([1]; oral Compound A 150 mg QD): 8,070 ng*h/mL | Clinical outcome ([2]; 30 mg BID oral, cycles of 28 days): progressed after 2 treatment cycles | Time on treatment with continued benefit ([2]; 100 mg BID oral, Cycle 11): > 40 weeks | Tumor assessment according to RECIST 1.1 ([2]; 100 mg BID oral, most recent assessment): Stable Disease | Tumor reduction ([2]; 150 mg QD oral): some tumor reduction observed | Time on treatment ([2]; 150 mg QD oral, Cycle 6): > 20 weeks | Tumor assessment per RECIST ([2]; 150 mg QD oral, Cycle 6): stable disease | PDGFRα D842V mutation allele frequency in plasma cfDNA ([3]; Cycle 3 Day 1 (8 weeks), not detected at baseline): 0.59% | PDGFRα D842V mutation allele frequency in plasma cfDNA ([3]; Cycle 5 Day 1 (16 weeks) and Cycle 7 Day 1 (24 weeks)): undetectable | Frequency of double positive CTCs (PDGFRα+/GFAP+) ([4]; cycle 7 (28 weeks)): 2.22 CTCs/mL | Frequency of double positive CTCs (PDGFRα+/GFAP+) ([4]; cycle 13 (52 weeks)): 1.11 CTCs/mL | Frequency of double positive CTCs (PDGFRα+/GFAP+) ([4]; cycle 17 (68 weeks)): 0.58 CTCs/mL | Tumor response according to the RANO criteria ([5]; PDGFRα 6× amplified, since assessment after Cycle 12 (48 weeks)): Partial Response | Time on study with continued benefit ([5]; PDGFRα amplified, cycle 19): > 17 months

pIC50 [6]: > 10.00 | pIC50 [8]: 8.30 | pIC50 [9]: 8.22 | pIC50 [10]: 7.59 | pIC50 [11]: 7.38 | pIC50 [12]: 7.70
SMILES: CCn1c(=O)c(-c2cc(NC(=O)Nc3ccccc3)c(F)cc2Br)cc2cnc(N)cc21 [Compound B, 1-(5-(7-amino-1-ethyl-2-oxo-1,2-dihydro-1,6-naphthyridin-3-yl)-4-bromo-2-fluorophenyl)-3-phenylurea]
pIC50 [7]: 10.74
